row,Structure (SMILES),melting point [°C]
1,CC(=O)CCCN1CCC(NC(=O)c2cc(Cl)c(N)c3c2OC(C)(C)C3)CC1,119
2,CC(C)c1cccc(CCC(O)CCCC2CCCCC2)c1NC(=O)CC1c2ccccc2Oc2ccccc21 (stereo unspecified),142 to 143
3,O=C(NCc1ccc(Cl)cc1)c1cnc2sc(C#CCCO)cc2c1O,242 to 246
4,CCCn1c(=O)c2[nH]c(-c3cc(C)n(CC(=O)Nc4cccc(Cl)c4)n3)nc2n(CCC)c1=O,304 to 307
5,COCCNC(=O)c1cccc(-c2cccc3c(F)c(Cc4cccc(C(F)(F)F)c4)sc23)c1,115 to 116
6,N=C(OCC1CC1)N1Cc2ccccc2-c2ccccc2C1,80 to 83
7,Nn1nc(-c2ccccc2)cc1OCCN1CCCC1,138
8,C=C(C)COc1ccc(Br)cc1CN(CC)c1ccc(C(=O)NS(=O)(=O)c2scnc2C)nn1,128
9,COc1ccc(Cc2c(N)nc(N)nc2O)cc1OC,268 to 270
10,CC1=N/C(=C\c2c[nH]c3ncccc23)C(=O)N1,277 to 281
11,FC(F)(F)c1cc(Nc2cc[nH]n2)nc(-c2cccnc2)n1,230
12,CCOc1nn(Cc2ccc(OCc3nc(-c4ccco4)oc3C)cc2)cc1CCC(=O)O,129 to 130
13,COc1ccc(C(=O)c2cccc(NC(=O)c3ccn4c3CSC4c3cccnc3)c2)cc1 (stereo unspecified),140
14,Cc1cc(SC(C)C)c(NC(=O)CCCCCCSc2nc3ccccc3s2)c(SC(C)C)n1,74 to 76
15,O=C(NCCO[N+](=O)[O-])c1csc(C(=O)NCCO[N+](=O)[O-])n1,136 to 138
16,Oc1ccc(Cn2ccn(C3CCc4ccccc4C3)c2=S)cc1O (stereo unspecified),173 to 174
17,CN(C)S(=O)(=O)N(C)c1ccc(C(=O)Nc2ccc(Cl)cc2)cc1,155 to 156
18,COc1cc2c(cc1C=O)C(C)(C(F)(F)F)OCC2 (stereo unspecified),82 to 93
19,Cc1c(CO)c2c(c(C)c1NC(=O)CC(C)(C)C)C(c1ccc(C(C)C)cc1)CO2 (stereo unspecified),274 to 275
20,CCOC(=O)c1oc(-c2ccc(C)cc2)cc(=O)c1Br,144
21,C=C(Cc1ccccc1)C(O)C(NC=O)C(=O)OCC (stereo unspecified),87 to 89
22,COc1cc(-c2cc(=O)c3ccc(OCC4CO4)cc3o2)cc(OC)c1OC (stereo unspecified),187 to 188
23,O=C1Nc2ccccc2C1c1ncnc2c1cnn2C1CCCC1 (stereo unspecified),228 to 231
24,COc1ccc2c(c1)c(CC(=O)OC(C)(C)C)c(C)n2C(=O)c1ccc(Cl)cc1,103 to 104
25,CS(=O)(=O)Nc1ccc([N+](=O)[O-])cc1OC1CCSCC1,200
26,O=[N+]([O-])c1ccc(Oc2cccc(Oc3ccc([N+](=O)[O-])c(O)c3)c2)cc1O,180 to 182

row,Structure (SMILES),melting point [°C]
1,CCOC1=NS(=O)(=O)N(C)C(Cl)=N1,75 to 80
2,COc1ccc(-n2cnc3ccc(C(=O)NN)cc32)cc1,196 to 197
3,NC(=O)C1(CCCN2CCCCC2)CC=CCC1c1ccccc1 (stereo unspecified),121 to 122
4,CCCCc1nc([N+](=O)[O-])c(CO)n1Cc1ccc(-c2ccccc2C(=O)O)cc1,204 to 206
5,CCOCc1c[nH]c(=O)c(N)c1Sc1cc(C)cc(C)c1,149 to 150
6,O=c1c(Br)c(OCc2ccccc2)ccn1CCc1ccsc1,134
7,CC1(C)Oc2ccc(C(F)(F)F)cc2C(n2ccccc2=O)=C1CN(O)C(=O)C(F)(F)F,208
8,CC(=O)COc1ccc2ccc(=O)oc2c1,168 to 170
9,CCOC(=O)c1cc(NC(C)=O)cnc1C(=O)OCC,108 to 110
10,CCOC(=O)c1cc2cc(SC(=O)N(C)C)ccc2oc1=O,133 to 134
11,CC(=CC#N)CN1C(=O)c2ccccc2S1(=O)=O,119 to 121
12,Cc1nnc(OC(=O)N2CCN(C)CC2)n1-c1ccc(Cl)cn1,214 to 216
13,COC(=O)[C@@H]1COC(=S)N1Cc1ccccc1,101 to 102
14,CC(=O)Nc1c(C(=O)C2CCCCC2)[nH]c2cc(Cl)ccc12,198
15,COc1ccc(-n2c(=O)c(C(=O)Cl)nc3c(Cl)cccc32)cc1,131 to 134
16,N#Cc1cc([N+](=O)[O-])c2sc(N3CCC4(CC3)OCCO4)nc(=O)c2c1,217 to 220
17,Cc1cc(-c2ncn3c(C(F)(F)F)cc(-c4ccc(Cl)cc4)nc23)ccn1,232
18,NC(N)=Nc1nc(-c2ccc(C(=O)NC(=O)c3cccnc3)o2)cs1,217
19,CCN1c2ncccc2C(=O)Nc2c(C(F)(F)F)cc(C)nc21,150 to 151
20,CS(=O)(=O)Nc1ccc(NC(=O)CCCc2ccc(N=C(N)c3cccs3)cc2)cc1,187 to 188
21,COC(=O)c1csc(CCCc2coc3nc(N)nc(N)c23)c1,156 to 157
22,CC1(C)CNc2cc3[nH]c(-c4ccncc4)nc3cc21,147 to 149
23,N#Cc1ccc(Oc2ccc3c(c2)CCNC3=O)nc1,192 to 194
24,C[C@@H](N)[C@](O)(Cn1cncn1)c1ccc(F)cc1F,156 to 157
25,CC(CNC1CC(C)(C)NC(C)(C)C1)C(=O)NC1CC(C)(C)NC(C)(C)C1 (stereo unspecified),116
26,CO/C=C(/C(=O)OC)c1csc(C(=O)c2ccccc2)c1,82 to 84

row,Structure (SMILES),melting point [°C]
1,CCc1c(Cl)c2ccccn2c1C(=O)c1ccc(O)cc1,179
2,COC(=O)c1ccc(C(F)(F)F)[nH]c1=O,63 to 64
3,Cc1cc(C)c(C)c(P(=O)(c2ccc(F)cc2)c2ccc(F)cc2)c1C,171 to 173
4,CCOC(=O)Nc1nc(C)c(-c2nc3ccccc3c(=O)n2-c2ccc(C(C)=O)cc2)s1,> 275
5,COc1ccccc1NC(=O)Nc1ccc(N2CCN(C(=O)Nc3ccc(OCCO)cc3C(F)(F)F)CC2)cc1,118 to 120
6,Cc1cc(C2=NNC(=O)CC2)ccc1CCCCNC(=O)c1cccnc1,160 to 161
7,Cn1c(C(=O)O)c(-c2ccc(F)cc2)c2ccsc2c1=O,205
8,Nc1nc(=Nc2ccccc2)n2c(n1)sc1ccccc12,> 250
9,Cc1ccc(S(=O)(=O)OC2CON(C(=O)OC(C)(C)C)C2)cc1 (stereo unspecified),63 to 65
10,CS(=O)(=O)Nc1ccc(Cn2c(=S)n(Cc3ccc(OC(F)(F)F)cc3)c3ccccc32)cc1,167 to 170
11,CC(C)(C)Sc1c(C#N)nn(-c2c(Cl)cc(C(F)(F)F)cc2Cl)c1N,196 to 198
12,NNc1cc2c(nn1)CCN(C(=O)CC(c1ccccc1)c1ccccc1)C2,175 to 178
13,O=C(Cc1ccccc1)NCc1cccc2c1CN(C1CCC(=O)NC1=O)C2=O (stereo unspecified),236 to 238
14,CCCCCCCCCCCCCCCCC(O)CN(C)CCO (stereo unspecified),39 to 40.6
15,CCCCCCCCCCCCCCCCCCNC(=O)OCC(CNS(=O)(=O)CCCCl)NC(=O)NC (stereo unspecified),87 to 90
16,COc1ccc2c(C)c3c(c(-c4ccc(F)cc4)c2c1)CNC3=O,236 to 238
17,Cc1cccc(-c2nc3ccc(OCCN(C)C)cc3n2Cc2ccccc2Br)c1,71
18,O=C1CCOc2cc(OCCn3ccnc3)ccc21,128 to 130
19,CCOC(=O)c1cnc2c(c1Cl)CCCCCC2,33 to 36
20,CCCCc1nn(-c2cc(NC(=O)CC)ccc2C(F)(F)F)c(=O)n1Cc1ccc(-c2ccccc2S(=O)(=O)NC(=O)OC(C)(C)C)cc1F,167 to 169
21,CCCn1cc(Cc2ccc(C(=O)OC)cc2OC)c2cc(CCCC(=O)O)ccc21,106 to 109
22,Cn1c(=O)[nH]c2nc3ccc(OCCCCC(=O)O)cc3cc21,311 to 313
23,CN1CCC(NC(=O)c2cccc3oc(-c4ccccc4)nc23)CC1,126 to 128
24,CCCCOc1c(N(C)C(=O)OC(C)(C)C)n(CC(C)C)c(=O)c2ccc(-c3cnco3)cc12,152 to 153
25,O=CC=C(c1ccc(F)cc1)c1ccc(F)cc1,56 to 58
26,COC1=CC(O)(SC(=O)N(C)C)C([N+](=O)[O-])C=C1 (stereo unspecified),101

row,Structure (SMILES),melting point [°C]
1,OC(c1cnc2c(cnn2-c2ccccc2)c1)(c1c[nH]c2ncccc12)C(F)(F)F (stereo unspecified),137 to 141
2,COC(=O)c1nc(Cl)c(F)c(N)c1/C=C/Cl,128 to 130
3,FN(F)C12CC3CC(CC(C3)C1)C2,113 to 115
4,CC(C(=O)NCCCC(F)(F)F)(c1ccccc1)c1ccccc1,82
5,Cn1c(-c2ccccc2)nc2cnc3ccccc3c21,168 to 170
6,CCc1nc(NC)sc1C(=O)c1ccc(N)c([N+](=O)[O-])c1,210 to 215
7,S=C1CCCC(c2ccc(Br)cc2)N1 (stereo unspecified),157
8,N#Cc1ccc(-c2ccc3nc(-c4ccc(C#N)cc4)cn3c2)cc1,292 to 294
9,Cc1cccc(-n2c(-c3cc(-c4ccccc4)c(N4CCOCC4)s3)nc3ccccc3c2=O)c1,194 to 196
10,CCCCN(CCCC)C(=O)N1CCc2ccc(S(=O)(=O)NC(=O)NC3CCCCC3)cc2CC1,118 to 120
11,O=C(Nc1ccccn1)c1sc(Nc2ccccc2)c2c1CCc1cnoc1-2,196 to 197
12,CS(=O)(=O)Nc1ccc(OCCN2CCC(C(=O)c3ccc(NS(C)(=O)=O)cc3)CC2)cc1,168 to 172
13,Cc1sc(CCc2ccc(/C=C/CO)cc2)nc1-c1ccccc1,93 to 94
14,CC1(C)C(=O)C(C(=O)c2ccc(C(F)(F)F)nc2CBr)=C(Cl)C(C)(C)C1=O,94.5 to 95
15,CC1(C)CC(=O)c2cccc(C(=O)O)c2C1,167 to 168
16,O=c1c2ccccc2c(-c2ccccc2)cn1CC1CO1 (stereo unspecified),148
17,COC(=O)N1Cc2nc(C(=O)O)cn2-c2ccccc21,204 to 208
18,CC(=CCO)c1ccc(C2CCCCCCC2)cc1,40 to 44
19,CCCCCCCCCCCOc1cccc(CCCC(N)(CO)CO)c1,71 to 72
20,Cc1cc(NC(=O)Cc2cccs2)nc(C)c1Br,192
21,CCc1cc2c(s1)-n1nnnc1CN=C2c1ccccc1Cl,135 to 136
22,CC(C)(C)c1cc(NC(=O)c2cccc(C#N)c2)cc(C(C)(C)C)c1O,219 to 222
23,Cn1c(C(F)(F)F)cc(=O)n(-c2ccc(Cl)cc2O)c1=O,198 to 202

# From a melting point compilation (Tetko et al.; mined from patent text by program, amines drawn as free bases though some values may be those of a salt)
